Key:
[1] = test system: Human umbilical vein endothelial cells (HUVEC), VEGF-stimulated; test: Test on the inhibition of VEGF-stimulated HUVEC growth ([3H]thymidine incorporation); type: cell-based; details: human recombinant VEGF 10 ng/ml
[2] = test system: Human umbilical vein endothelial cells (HUVEC), VEGF-stimulated; test: as above; type: cell-based; details: human recombinant VEGF 10 ng/ml; remark: listed apart in the source
Description: Test method: (Cell culture) Human umbilical vein endothelial cells (HUVEC) were cultured using EGM-2 complete medium (Clonetics) which had been supplemented with additives (2% FBS, 0.4% FGF (fibroblast growth factor), 0.1% VEGF, 0.1% IGF-I (insulin like growth factor-I), 0.1% EGF (epidermal growth factor), 0.1% ascorbic acid, 0.1% GA-1000, 0.1% heparin and 0.04% hydrocortisone).
(Evaluation of compounds) HUVEC (10,000 cells/well) were inoculated into EGM-2 complete medium in a gelatin-coated 96 well plate (mfd. by IWAKI) and cultured overnight. After washing with a physiological phosphate buffer, the medium was exchanged with a low serum medium (Medium 199/0.1% FBS) and the culturing was continued for 24 hours. Each of the compounds to be evaluated was prepared as a 10 mM DMSO solution and diluted with the low serum medium. This was added to each well to a final concentration of from 0.001 to 10 μM. After 2 hours of the compound treatment, human recombinant VEGF (R & D Systems) was added to a final concentration of 10 ng/ml. After 18 hours, [^3H]thymidine (Amersham Pharmacia) was added in 5 μCi/well portions. After 4 hours, the reaction was terminated by adding 0.2% SDS in 50 μl/well portions, and the product was recovered on GF/C Unifilter (Packard). After adding 25 μl of Microscinti 20 (Packard), the radioactivity incorporated into the DNA trapped on the filter was measured using TopCount (Packard). The IC50 of the inhibitory activity of each compound was calculated as the 50% inhibition concentration (IC50 value) of each compound to be tested, by defining the incorporated amount of [^3H]thymidine at the time of VEGF addition as 100%, and its incorporated amount at the time of no addition of VEGF as 0%.

Row | Compound | IC50 [1] [nM] | IC50 [2] [nM]
1 | O=C1Nc2ccccc2C1=C1C=Cc2cc(OCCn3ccnn3)ccc2N1 [Example 1, 3-{6-[2-(1H-1,2,3-triazol-1-yl)ethoxy]quinolin-2(1H)-ylidene}indolin-2-one] | 210 | 
2 | O=C1Nc2ccccc2C1=C1C=Cc2cc(OCC(=O)N3CCOCC3)ccc2N1 [Example 8, 3-[6-(2-morpholin-4-yl-2-oxoethoxy)quinolin-2(1H)-ylidene]indolin-2-one] | 170 | 
3 | CCOC(=O)c1ccc2c(c1)NC(=O)C2=C1C=Cc2ccccc2N1 [Example 17, ethyl 3-[quinolin-2(1H)-ylidene]indolin-2-one-carboxylate] |  | 12
4 | O=C1Nc2ccccc2C1=C1C=Cc2cc(OC(=O)c3ccccc3)ccc2N1 [Example 36] |  | 160
5 | COc1ccc2c(c1)C=CC(=C1C(=O)Nc3ccccc31)N2 [Example 37] |  | 310
6 | CC1=CC(=C2C(=O)Nc3ccccc32)Nc2ccccc21 [Example 38] |  | 38
7 | CCOC(=O)CCC1=CC(=C2C(=O)Nc3ccccc32)Nc2ccccc21 [Example 39] |  | 32
8 | O=C1Nc2ccccc2C1=C1C=Cc2cc(OCCCN3CCOCC3)ccc2N1 [Example 42] |  | 110
9 | O=C1Nc2ccccc2C1=C1C=Cc2cc(OCCCCN3CCOCC3)ccc2N1 [Example 47] |  | 170
10 | O=C1Nc2ccccc2C1=C1C=Cc2cc(Br)ccc2N1 [Example 56] |  | 110
11 | O=C1Nc2ccccc2C1=C1C=Cc2cc(OCCNC3CCC(O)CC3)ccc2N1 (stereo not drawn) [Example 57] |  | 720
12 | COCCOc1ccc2c(c1)C=CC(=C1C(=O)Nc3ccccc31)N2 [Example 58] |  | 34
13 | O=C1Nc2ccccc2C1=C1C=Cc2cc(OCCN3CCCCC3=O)ccc2N1 [Example 59] |  | 87
14 | O=C(O)CCc1ccc2c(c1)C=CC(=C1C(=O)Nc3ccccc31)N2 [Example 66] |  | 350
15 | COc1cc2c(cc1CCCN1CCOCC1)NC(=C1C(=O)Nc3ccccc31)C=C2 [Example 77] |  | 160
16 | CCOC(=O)C1CCN(CCOc2ccc3c(c2)C=CC(=C2C(=O)Nc4ccccc42)N3)CC1 [Example 79] |  | 100
17 | O=C1Nc2ccccc2C1=C1C=Cc2cc(OCCN3CCS(=O)(=O)CC3)ccc2N1 [Example 80] |  | 100
18 | O=C1Nc2ccccc2C1=C1C=Cc2cc(OCCN3CCC(n4c(=O)[nH]c5ccccc54)CC3)ccc2N1 [Example 81] |  | 68
19 | O=C1Nc2ccccc2C1=C1C=Cc2cc(OCCN3CCN(c4ncccn4)CC3)ccc2N1 [Example 82] |  | 42
20 | CN1CCCN(CCOc2ccc3c(c2)C=CC(=C2C(=O)Nc4ccccc42)N3)CC1 [Example 83] |  | 110

Row | Compound | IC50 [1] [nM] | IC50 [2] [nM]
21 | O=C1Nc2ccccc2C1=C1C=Cc2cc(OCCN3CCN(CCO)CC3)ccc2N1 [Example 85] |  | 110
22 | CN(C)CCN(C)CCOc1ccc2c(c1)C=CC(=C1C(=O)Nc3ccccc31)N2 [Example 86] |  | 100
23 | CN1CCC(N(C)CCOc2ccc3c(c2)C=CC(=C2C(=O)Nc4ccccc42)N3)CC1 [Example 87] |  | 100
24 | CN1CCN(CCCc2ccc3c(c2)C=CC(=C2C(=O)Nc4ccccc42)N3)CC1 [Example 98] |  | 150
25 | O=C1Nc2ccccc2C1=C1C=Cc2ccc(OCCN3CCOCC3)cc2N1 [Example 102] |  | 410
26 | O=C1Nc2ccccc2C1=C1C=Cc2c(cccc2OCCN2CCOCC2)N1 [Example 105] |  | 220
27 | COCCNCc1ccc2c(c1)C=CC(=C1C(=O)Nc3ccccc31)N2 [Example 112] |  | 100
28 | O=C(CCc1ccc2c(c1)C=CC(=C1C(=O)Nc3ccccc31)N2)NOCC1CC1 [Example 144] |  | 93
29 | O=C1Nc2ccccc2C1=C1C=Cc2cc(C(=O)NCCN3CCOCC3)ccc2N1 [Example 145] |  | 31
30 | CCOC(=O)CNC(=O)c1ccc2c(c1)C=CC(=C1C(=O)Nc3ccccc31)N2 [Example 146] |  | 76
31 | CNC(=O)c1ccc2c(c1)C=CC(=C1C(=O)Nc3ccccc31)N2 [Example 149] |  | 73
32 | O=C(NCCN1CCOCC1)C1=CC(=C2C(=O)Nc3ccccc32)Nc2ccccc21 [Example 159] |  | 38
33 | CCN(CC)CCNC(=O)C1=CC(=C2C(=O)Nc3ccccc32)Nc2ccccc21 [Example 160] |  | 46
34 | O=C(NCCCN1CCOCC1)C1=CC(=C2C(=O)Nc3ccccc32)Nc2ccccc21 [Example 163] |  | 43
35 | O=C1Nc2ccccc2C1=C1C=C(CO)c2ccccc2N1 [Example 187] |  | 140
36 | N#Cc1ccc2c(c1)NC(=O)C2=C1C=Cc2ccccc2N1 [Example 191] |  | 70
37 | O=Cc1ccc2c(c1)NC(=O)C2=C1C=Cc2ccccc2N1 [Example 193] |  | 870
38 | Cc1ccc2c(c1)C(=C1C=Cc3ccccc3N1)C(=O)N2 [Example 201] |  | 290
39 | O=C1Nc2cc(C(F)(F)F)ccc2C1=C1C=Cc2ccccc2N1 [Example 203] |  | 4.8
40 | CCOC(=O)c1cc2c(cc1F)C(=C1C=Cc3ccccc3N1)C(=O)N2 [Example 204] |  | 22

Row | Compound | IC50 [1] [nM] | IC50 [2] [nM]
41 | O=C1Nc2cc(F)ccc2C1=C1C=Cc2ccccc2N1 [Example 209] |  | 18
42 | O=C1Nc2ccc(F)cc2C1=C1C=Cc2ccccc2N1 [Example 213] |  | 0.97
43 | O=C1Nc2cc(Cl)ccc2C1=C1C=Cc2ccccc2N1 [Example 217] |  | 11
44 | CCOC(=O)c1cc2c(cc1C)C(=C1C=Cc3ccccc3N1)C(=O)N2 [Example 222] |  | 6.8
45 | CCOC(=O)c1ccc2c(c1)C(=C1C=Cc3ccccc3N1)C(=O)N2 [Example 239] |  | 310
46 | CCOCc1ccc2c(c1)NC(=O)C2=C1C=Cc2ccccc2N1 [Example 259] |  | 71
47 | CC(=O)Oc1ccc2c(c1)NC(=O)C2=C1C=Cc2ccccc2N1 [Example 265] |  | 180
48 | O=C1Nc2ccc(Cl)cc2C1=C1C=Cc2ccccc2N1 [Example 283] |  | 84
49 | O=C1Nc2ccc([N+](=O)[O-])cc2C1=C1C=Cc2ccccc2N1 [Example 284] |  | 360
50 | O=C1Nc2ccc(Br)cc2C1=C1C=Cc2ccccc2N1 [Example 285] |  | 70
51 | CCN(CC)CCOc1ccc2c(c1)C(=C1C=Cc3ccccc3N1)C(=O)N2 [Example 286] |  | 750
52 | O=C1Nc2ccc(Cl)cc2C1=C1C=Cc2cc(OCCN3CCOCC3)ccc2N1 [Example 293] |  | 48
53 | CCOC(=O)c1ccc2c(c1)NC(=O)C2=C1C=Cc2cc(OCCN3CCOCC3)ccc2N1 [Example 294] |  | 12
54 | N#Cc1ccc2c(c1)NC(=O)C2=C1C=Cc2cc(OCCN3CCOCC3)ccc2N1 [Example 295] |  | 33
55 | O=C1Nc2cc(C(F)(F)F)ccc2C1=C1C=Cc2cc(OCCN3CCOCC3)ccc2N1 [Example 296] |  | 47
56 | CCOC(=O)c1cc2c(cc1Cl)C(=C1C=Cc3cc(OCCN4CCOCC4)ccc3N1)C(=O)N2 [Example 298] |  | 50
57 | CCOC(=O)c1cc2c(cc1F)C(=C1C=Cc3cc(OCCN4CCOCC4)ccc3N1)C(=O)N2 [Example 299] |  | 27
58 | CCOC(=O)c1cc2c(cc1C)C(=C1C=Cc3cc(OCCN4CCOCC4)ccc3N1)C(=O)N2 [Example 301] |  | 7.6
59 | O=C1Nc2cc(Cl)ccc2C1=C1C=Cc2cc(OCCN3CCOCC3)ccc2N1 [Example 312] |  | 48
60 | O=C1Nc2cc(F)c(F)cc2C1=C1C=Cc2cc(OCCN3CCOCC3)ccc2N1 [Example 341] |  | 20

Source: patent publication US20050090498A1, “3-Quinolin-2(1h)-ylideneindolin-2-one derivative” (priority 2001, published 2005)
